According to patent publication US20200392497A1, “METHODS AND COMPOSITIONS FOR DETECTING AND PROMOTING CARDIOLIPIN REMODELING AND CARDIOMYOCYTE MATURATION AND RELATED METHODS OF TREATING MITOCHONDRIAL DYSFUNCTION” (University of Washington, priority 2017, published 2020):

Tested on: HADHA Mut CMs
Assay: Seahorse MitoStress assay, proton leak in fatty acid challenged HADHA Mut CMs
Assay type: cell-based, human
Conditions: 1 nM, 12D Glc+FA media, vs non-treated Mut CMs
From the text: To better understand the pathological state of HADHA Mut and KO CMs exposed to chronic FAs, their mitochondria were functionally assessed. […] Because exposure to FAs led to a reduction in mitochondrial membrane potential and reduced ATP production, it was postulated that this may be due in part to an increased proton leak.
The Seahorse XF96 extracellular flux analyzer was used to assess mitochondrial function as previously described [Kuppusamy, K. T., et al., Let-7 family of microRNA is required for maturation and adult-like metabolism in stem cell-derived cardiomyocytes. Proc Natl Acad Sci U.S.A., 2015]. The plates were pre-treated with 1:60 diluted Matrigel reduced growth factor (Corning). […] The OCR values were further normalized to the number of cells present in each well, quantified by the Hoechst staining (Hoechst 33342; Sigma-Aldrich) as measured using fluorescence at 355 nm excitation and 460 nm emission. […] ATP production was calculated as the difference between the basal respiration and respiration after oligomycin. Proton leak was calculated as the difference between respiration after oligomycin and after antimycin & rotenone. Cellular capacity to utilize palmitate as an energy source was calculated as the difference between the average OCR after second palmitate addition and the final respiration value before the second addition of palmitate. […]

elamipretide [SS-31]
proton leak (OCR after oligomycin minus OCR after antimycin & rotenone): significantly lower
proton leak (OCR after oligomycin minus OCR after antimycin & rotenone) (listed as elamipretide (SS-31)): rescued the increased proton leak
